According to patent US11040028B2, “Penicinotam derivative, preparation method and use thereof” (OCEAN UNIVERSITY OF CHINA, priority 2017, dated 2021):

Experiments:
Type in all cases: cell-based
BHK-21 cells = test: Anti-fibrosis activity test: inhibition of BHK-21 cell proliferation (CCK-8); settings: Mesocricetus auratus, BHK-21, 48 h
Summary of the method: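 Cells seeded at 2×10^4 cells/mL, allowed to adhere 24 hours, then exposed to graded compound concentrations in triplicate for 48 hours at 37° C, 5% CO2. CCK-8 added for 2 hours, absorbance read at 450 nm; inhibition versus blank control used to derive IC50. Pirfenidone served as positive control.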

[1] = test system: human lung fibroblasts HFL1; test: Anti-fibrosis activity test: inhibition of proliferation of human lung fibroblasts HFL1 (CCK-8); settings: Homo sapiens, HFL1, 48 h
Summary of the method: (§1)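 A CCK-8 proliferation assay was run: cells at 2×10^4 cells/mL, adherent for 24 h, then incubated 48 h at 37° C with compound dilutions. A450 was recorded 2 h after CCK-8 addition and converted to percent inhibition versus blank for IC50 determination.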

[2] = test system: human hepatic stellate cells LX-2; test: Anti-fibrosis activity test: inhibition of proliferation of human hepatic stellate cells LX-2 (CCK-8); settings: Homo sapiens, 48 h
Summary of the method: as §1

[3] = test system: human fibrosarcoma cells HT-1080; test: Anti-fibrosis activity test: inhibition of proliferation of human fibrosarcoma cells HT-1080 (CCK-8); settings: Homo sapiens, HT-1080, 48 h
Summary of the method: as §1

[4] = test system: human dermal fibroblasts CCC-ESF-1; test: Anti-fibrosis activity test: inhibition of proliferation of human dermal fibroblasts CCC-ESF-1 (CCK-8); settings: Fibroblast
Summary of the method: as §1

[5] = test system: human embryonic lung fibroblast IMR-90; test: Anti-fibrosis activity test: inhibition of proliferation of human embryonic lung fibroblast IMR-90 (CCK-8)
Summary of the method: as §1

[6] = test system: cardiac fibroblast RAT-iCell-C002; test: Anti-fibrosis activity test: inhibition of proliferation of cardiac fibroblast RAT-iCell-C002 (CCK-8); settings: Cardiac fibroblast, 48 h
Summary of the method: as §1

NF-κB = test: Immunological activity test: inhibition of NF-κB activity; settings: initial concentration of 30 μM; a/b isomers given as first/second symbol; read-out: IC50 (μM), inhibitory activity against NF-κB
Summary of the method: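 Compounds were first screened for inhibition of NF-κB activity at 30 μM, with parthenolide as the positive control. IC50 values were then determined for the compounds by further analysis of the assay data.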

[7] = test system: mouse macrophages (RAW264.7); test: Lipopolysaccharide-induced NO secretion in macrophages (Griess); settings: Mus musculus, RAW264.7, 24 h, RAW264.7, LPS 1 μg/ml, a/b isomers given as first/second symbol, read-out: IC50 (μM), inhibition of lipopolysaccharide-induced NO secretion in macrophages
Summary of the method: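 Absorbance at 548 nm after Griess reagent addition to culture supernatant gave NO content; inhibition rate was derived relative to blank control. Cells were mouse RAW264.7 macrophages exposed to compounds and 1 μg/ml LPS for 24 hours.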

[8] = CCK-8, 48 hours after administration
[9] = human lung fibroblasts HFL1, CCK-8, 48 hours
[10] = human hepatic stellate cells LX-2, CCK-8, 48 hours
[11] = human fibrosarcoma cells HT-1080, CCK-8, 48 hours
[12] = human dermal fibroblasts CCC-ESF-1, CCK-8, 48 hours
[13] = human embryonic lung fibroblast IMR-90, CCK-8, 48 hours
[14] = cardiac fibroblast RAT-iCell-C002, CCK-8, 48 hours
[15] = Homo sapiens, CCC-ESF-1 cells, 48 h, CCK-8
[16] = Homo sapiens, IMR-90 cells, 48 h, CCK-8

Row | Compound | IC50 [3, 11] | IC50 (NF-κB) | IC50 [7] | IC50 ([3]; HT-1080 cells, 48 h, CCK-8) | IC50 (BHK-21 cells; [8]) | IC50 [1, 9] | IC50 [2, 10] | IC50 [4, 12] | IC50 [5, 13] | IC50 [6, 14] | IC50 (BHK-21 cells; 48 h, CCK-8) | IC50 ([1]; HFL1 cells, 48 h, CCK-8) | IC50 ([2]; LX-2, 48 h, LX-2 cells, CCK-8) | IC50 [4, 15] | IC50 [5, 16] | IC50 ([6]; RAT-iCell-C002 cells, CCK-8)
1 | O=C1c2c(n(Cc3cccc(Cl)c3F)c3ccccc3c2=O)-c2cccn21 [Compound 582a, 4-(3-Chloro-2-fluorobenzyl)-9H-pyrrolizino[1,2-b]quinoline-9,10(4H)-dione] | 0.05 to 5 mM | 1 to 10 µM | 1 to 10 µM |  | 0.05 to 5 mM | 0.05 to 5 mM | 0.05 to 5 mM | 0.05 to 5 mM | 0.05 to 5 mM | 0.05 to 5 mM |  |  |  |  |  | 
2 | O=C1c2c(nc3cc(N4CCNCC4)ccc3c2O)-c2cccn21 [Compound 319b, 9-Hydroxy-6-(piperazin-1-yl)-10H-pyrrolizino[1,2-b]quinolin-10-one] | 0.05 to 5 mM | 1 to 10 µM | 1 to 10 µM |  | 0.05 to 5 mM | 0.05 to 5 mM | 0.05 to 5 mM | < 0.05 mM | 0.05 to 5 mM | 0.05 to 5 mM |  |  |  |  |  | 
3 | O=C1c2c(n(Cc3ccc(Cl)cc3)c3cccc(Cl)c3c2=O)-c2cccn21 [Compound 477a, 8-Chloro-4-(4-chlorobenzyl)-9H-pyrrolizino[1,2-b]quinoline-9,10(4H)-dione] | 0.05 to 5 mM | 10 to 50 µM | 1 to 10 µM |  | 0.05 to 5 mM | 0.05 to 5 mM | 0.05 to 5 mM | 0.05 to 5 mM | 0.05 to 5 mM | 0.05 to 5 mM |  |  |  |  |  | 
4 | O=C1c2c(nc3ccccc3c2OCc2ccc(F)c(F)c2)-c2cccn21 [Compound 601b, 9-((3,4-difluorobenzyl)oxy)-10H-pyrrolizino[1,2-b]quinolin-10-one] | 0.05 to 5 mM | 1 to 10 µM | 1 to 10 µM |  | 0.05 to 5 mM | 0.05 to 5 mM | 0.05 to 5 mM | 0.05 to 5 mM | 0.05 to 5 mM | 0.05 to 5 mM |  |  |  |  |  | 
5 | O=C1c2c(n(Cc3ccc(Cl)c(Cl)c3)c3ccccc3c2=O)-c2cccn21 [Compound 613a, 4-(3,4-Dichlorobenzyl)-9H-pyrrolizino[1,2-b]quinoline-9,10(4H)-dione] | 0.05 to 5 mM | 1 to 10 µM | 10 to 50 µM |  | < 0.05 mM | 0.05 to 5 mM | 0.05 to 5 mM | 0.05 to 5 mM | 0.05 to 5 mM | 0.05 to 5 mM |  |  |  |  |  | 
6 | O=C1c2c(nc3ccccc3c2OCCN2CCCCC2)-c2cccn21 [Compound 665b, 9-(2-(piperidin-1-yl)ethoxy)-10H-pyrrolizino[1,2-b]quinolin-10-one] |  | 1 to 10 µM | 1 to 10 µM | 0.05 to 5 mM |  |  |  |  |  |  | 0.05 to 5 mM | 0.05 to 5 mM | 0.05 to 5 mM | 0.05 to 5 mM | 0.05 to 5 mM | 0.05 to 5 mM

Second part, led by results:

Row | IC50 [3, 11] | IC50 (NF-κB) | IC50 [7] | IC50 ([3]; HT-1080 cells, 48 h, CCK-8) | Compound | IC50 (BHK-21 cells; [8]) | IC50 [1, 9] | IC50 [2, 10] | IC50 [4, 12] | IC50 [5, 13] | IC50 [6, 14] | IC50 (BHK-21 cells; 48 h, CCK-8) | IC50 ([1]; HFL1 cells, 48 h, CCK-8) | IC50 ([2]; LX-2, 48 h, LX-2 cells, CCK-8) | IC50 [4, 15] | IC50 [5, 16] | IC50 ([6]; RAT-iCell-C002 cells, CCK-8)
7 | 0.05 to 5 mM | 1 to 10 µM | 1 to 10 µM |  | CC(C)(C)Cn1c2c(c(=O)c3ccccc31)C(=O)n1cccc1-2 [Compound 656a, 4-Neopentyl-9H-pyrrolizino[1,2-b]quinoline-9,10(4H)-dione] | 0.05 to 5 mM | 0.05 to 5 mM | 0.05 to 5 mM | 0.05 to 5 mM | 0.05 to 5 mM | 0.05 to 5 mM |  |  |  |  |  | 
8 | < 0.05 mM | 1 to 10 µM | 1 to 10 µM |  | O=C1c2c(n(Cc3ccc(F)cc3F)c3ccccc3c2=O)-c2cccn21 [Compound 578a, 4-(2,4-Difluorobenzyl)-9H-pyrrolizino[1,2-b]quinoline-9,10(4H)-dione] | 0.05 to 5 mM | 0.05 to 5 mM | 0.05 to 5 mM | 0.05 to 5 mM | 0.05 to 5 mM | 0.05 to 5 mM |  |  |  |  |  | 
9 |  | 1 to 10 µM | 0.1 to 1 µM | 0.05 to 5 mM | Cc1cc2[nH]c3c(c(=O)c2cc1C)C(=O)n1cccc1-3 [Compound 756a, 6,7-Dimethyl-9H-pyrrolizino[1,2-b]quinoline-9,10(4H)-dione] |  |  |  |  |  |  | 0.05 to 5 mM | 0.05 to 5 mM | 0.05 to 5 mM | 0.05 to 5 mM | 0.05 to 5 mM | 0.05 to 5 mM
